# Patent US9180159B2, “Use of cell-permeable peptide inhibitors of the JNK signal transduction pathway for the treatment of chronic or non-chronic inflammatory digestive diseases” (Xigen Inflammation Ltd., priority 2008, dated 2015)
# Non-standard residues stand in square brackets, D forms with d.
# Columns and labels:
# [1] = system: transient global ischemia; conditions: Carboni et al. 2004; cited from earlier work
# [2] = system: Primary cultured macrophages; assay: Incorporation of XG-102 into primary cultured macrophages, detected with a specific antibody; assay type: cell-based; conditions: incubated with peptide and extensively washed
# Experimental: FIG. 8 Primary cultured macrophages were incubated with XG-102 (SEQ ID NO: 11) and extensively washed.
# [3] = system: THP-1 cells; assay: LPS-induced cytokine and chemokine release in THP-1 cells; assay type: cell-based
# From the text: (§1) XG-102 (SEQ ID NO:11) inhibits cytokine release in both myeloid and lymphoid cell lines, reducing LPS-induced TNFa, IL-6 and MCP-1 release in THP-1 cells (Panels A-C) and PMA & ionomycin-induced IFNg, IL-6 and IL-2 production in Jurkat cells (Panels D-F).
# [4] = system: Jurkat cells; assay: PMA & ionomycin-induced cytokine production in Jurkat cells; assay type: cell-based
# From the text: as §1
# [5] = system: murine macrophages; assay: LPS-induced cytokine release in murine macrophages; assay type: cell-based
# [6] = system: murine T cells; assay: PMA & ionomycin-induced cytokine production in murine T cells; assay type: cell-based
# [7] = system: primary lymphoid and myeloid cells; assay: Cytotoxicity in primary cells (FIG. 12 Panel F); assay type: cell-based, murine
# [8] = system: TNBS-induced colitis; assay: TNBS-induced colitis in mice (FIG. 13); assay type: in vivo; conditions: subcutaneous, 50 and 100 mg/kg
# From the text: JNK is activated in macrophages and lymphocytes of patients with inflammatory bowel disease, a response correlated with increased TNFa, IL-6 and IFNg production in lesions.
# [9] = system: TNBS-induced colitis; assay: TNBS-induced colitis (IBD study) in BALB/c mice, Example 12; assay type: in vivo; conditions: for clinical score: XG-102 any dose, route or schedule, Sulfasalazine 10 mg/kg PO daily
# Experimental: b) Constitution of test groups and dose levels • The table below lists the experimental groups comprising the study.
# c) Test Procedures • Colitis was induced by administration of TNBS […], as a single or repeated daily doses (see above).
# d) Observations and Examinations • i) Clinical signs • Throughout the duration of the above experiment, careful clinical examinations were carried out and recorded. Observations included changes external appearance, e.g. of the skin, fur, eyes, mucous membranes, occurrence of secretions and excretions (e.g. diarrhea), and autonomic activity. Changes in gait, posture and response to handling, as well as the presence of bizarre behavior, tremors, convulsions, sleep and coma were also noted. • ii) Body weights • Determination of individual body weight of animals was made on a daily basis. • iii) Clinical assessment of colitis • Body weight, stool consistency and bleeding per rectum were all recorded daily and served as the parameters of disease severity score:
# • iv) Gross pathology of the colon • On the last day of the experiment, animals were euthanized and the colon was removed for gross pathology evaluation according to the following score: […]
# [10] = system: TC-3 cell cultures; assay: Cellular import and intracellular persistence of fluorescein-labeled peptides in TC-3 cells; assay type: cell-based; conditions: 1 μM
# Experimental: The ability of the L- and D-enantiomeric forms of TAT and TAT-IB1(s) peptides (“TAT-IB peptides”) to enter cells was evaluated. L-TAT, D-TAT, L-TAT-IB1(s), and D-TAT-IB1(s) peptides [SEQ ID NOs: 5, 6, 9 and 12, respectively] were labeled by N-terminal addition of a glycine residue conjugated to fluorescein. Labeled peptides (1 μM) were added to TC-3 cell cultures, which were maintained as described in Example 3. At predetermined times cells were washed with PBS and fixed for five minutes in ice-cold methanol-acetone (1:1) before being examined under a fluorescence microscope. Fluorescein-labeled BSA (1 μM, 12 moles/mole BSA) was used as a control.
# Little to no signal was present at 48 hours.
# [11] = system: recombinant JNK1, JNK2 and JNK3; assay: Solid phase kinase assay, phosphorylation of c-Jun, ATF2 and Elk1 by recombinant JNKs; assay type: biochemical; conditions: GST-Jun (aa 1-73), 0-250 μM dosage study
# Experimental: The effects of the peptides on JNKs-mediated phosphorylation of their target transcription factors were investigated in vitro. Recombinant and non activated JNK1, JNK2 and JNK3 were produced using a TRANSCRIPTION AND TRANSLATION rabbit reticulocyte lysate kit (Promega) and used in solid phase kinase assays with c-Jun, ATF2 and Elk1, either alone or fused to glutathione-S-transferase (GST), as substrates. Dose response studies were performed wherein L-TAT or L-TAT-IB1(s) peptides (0-25 μM) were mixed with the recombinant JNK1, JNK2, or JNK3 kinases in reaction buffer (20 mM Tris-acetate, 1 mM EGTA, 10 mM p-nitrophenyl-phosphate (pNPP), 5 mM sodium pyrophosphate, 10 mM p-glycerophosphate, 1 mM dithiothreitol) for 20 minutes. The kinase reactions were then initiated by the addition of 10 mM MgCl2 and 5 pCi ^33P-dATP and 1 μg of either GST-Jun (aa 1-89), GST-AFT2 (aa 1-96) or GST-ELK1 (aa 307-428). GST-fusion proteins were purchased from Stratagene (La Jolla, Calif.).
# Ten μL of glutathione-agarose beads were also added to the mixture. Reaction products were then separated by SDS-PAGE on a denaturing 10% polyacrylamide gel. Gels were dried and subsequently exposed to X-ray films (Kodak). […] The ability of D-TAT, D-TAT-IB1(s) and L-TAT-IB1(s) peptides (0-250 μM dosage study) to inhibit GST-Jun (aa 1-73) phosphorylation by recombinant JNK1, JNK2, and JNK3 by were analyzed as described above. Overall, D-TAT-IB1(s) peptide decreased JNK-mediated phosphorylation of c-Jun, but at levels approximately 10-20 fold less efficiently than L-TAT-IB1(s).
# [12] = system: TC-3 cells; assay: IL-1 induced pancreatic beta-cell death in TC-3 cells treated with peptides; assay type: cell-based; conditions: one single addition 1 μM
# Experimental: Inhibition of IL-1 induced pancreatic beta-cell death by the D-TAT-IB1(s) peptide was analyzed. TC-3 cells were incubated as described above for 30 minutes with one single addition of the indicated peptides (1, μM), then IL-1 (10 ng/ml) was added.
# Apoptotic cells were then counted after two days of incubation with IL-1 by use of Propidium Iodide and Hoechst 33342 nuclear staining. A minimum of 1,000 cells were counted for each experiment.
# Long term inhibition of IL-1P induced cell-death by the D-TAT-IB1 peptide was also analyzed. TC-3 cells were incubated as above for 30 minutes with one single addition of the indicated peptides (1 μM), then IL-1 (10 ng/ml) was added, followed by addition of the cytokine every two days. Apoptotic cells were then counted after 15 days of incubation with IL-1 by use of propidium iodide and Hoechst 33342 nuclear staining. […] A minimum of 1.000 cells were counted for each experiment.
# [13] = system: primary embryonic cultures and differentiated PC12 cells; conditions: at dosages that inhibit activation of JNKs; after trophic withdrawal; cited from earlier work
# [14] = mice treated with 1-methyl-4-phenyl tetrahydropyridine; cited from earlier work
# [15] = system: cultured chick embryonic dorsal root ganglion, sympathetic, ciliary and motor neurons; conditions: Borasio et al. 1998; cited from earlier work
# [16] = system: JNK; conditions: JBDs; Dickens et al. Science 277: 693 (1997); cited from earlier work
compound,measurement,setting,value
N#CC(c1ccnc(NCCc2cccnc2)n1)c1nc2ccccc2s1 (stereo not shown) [AS601245],delayed loss of hippocampal CA1 neurons,[1],significant protection
NH2-DQSRPVQPFLNLTTPRKPRPPRRRQRRKKRG-COOH (H-[dD][dQ][dS][dR][dP][dV][dQ][dP][dF][dL][dN][dL][dT][dT][dP][dR][dK][dP][dR][dP][dP][dR][dR][dR][dQ][dR][dR][dK][dK][dR]G-OH) [XG-102],incorporation into primary macrophages,[2],strongly incorporated
same,LPS-induced IL-6 release,[3],reducing
same,LPS-induced MCP-1 release,[3],reducing
same,LPS-induced TNFa release,[3],reducing
same,PMA & ionomycin-induced IFNg production,[4],reducing
same,PMA & ionomycin-induced IL-2 production,[4],reducing
same,PMA & ionomycin-induced IL-6 production,[4],reducing
same,LPS-induced IL-6 release,[5],reducing
same,LPS-induced Rantes release,[5],reducing
same,LPS-induced TNFa release,[5],reducing
same,PMA & ionomycin-induced IFNg production,[6],reducing
same,PMA & ionomycin-induced TNFa production,[6],reducing
same,cytotoxicity at concentrations inhibiting cytokine release,[7],non-cytotoxic concentrations
same,DAI,[8],diminishing
same,protection from TNBS-induced colitis,[8],protects mice from TNBS-induced colitis
same,rectal bleeding,[8],diminishing
same,weight loss,[8],diminishing
same,clinical signs,"[9]; 0.01-1000 μg/kg SC or PO, single or daily for 7 days",No abnormalities were observed
same,disease recovery (conclusion),[9]; SC or PO,active in enhancing diseases recovery
same,clinical score,[9],an effect equivalent to or better than the one observed with the commonly used reference drug sulfasalazine
same,body weights (TNBS induced weight loss),"[9]; mouse, in vivo",either prevented the weight loss or ameliorated the symptoms and supported recovery
same,mortality rate,[9]; whole study,No mortality was recorded
same,entry into cells,[10],efficiently and rapidly (less than five minutes) entered cells
same,"decrease of JNK-mediated phosphorylation of c-Jun, fold less efficient than L-TAT-IB1(s)",[11],10-20 fold
same,"long term protection from IL-1 induced cell-death, 15 days",[12]; IL-1 10 ng/ml every two days,able to confer long term (15 day) protection
CCSCc1ccc2c(c1)c1c3c(c4c5cc(CSCC)ccc5n5c4c1n2[C@H]1C[C@](O)(C(=O)OC)[C@]5(C)O1)CNC3=O [CEP-1347],neuronal survival,[13],promotes neuronal survival
same,neuronal survival,[14],promotes neuronal survival
same,long term-survival of neurons,[15],promote long term-survival
NH2-RRRQRRKKRG-COOH (D-amino acids; Description of sequence Peptide D-TAT (see Table 1)),entry into cells,[10],efficiently and rapidly (less than five minutes) entered cells
NH2-TDQSRPVQPFLNLTTPRKPRYTDPPRRRQRRKKRG-COOH (HELM PEPTIDE1{[dT].[dD].[dQ].[dS].[dR].[dP].[dV].[dQ].[dP].[dF].[dL].[dN].[dL].[dT].[dT].[dP].[dR].[dK].[dP].[dR].[dY].[dT].[dD].[dP].[dP].[dR].[dR].[dR].[dQ].[dR].[dR].[dK].[dK].[dR].G}$$$$V2.0; SMILES CC(C)C[C@@H](NC(=O)[C@@H](Cc1ccccc1)NC(=O)[C@H]1CCCN1C(=O)[C@@H](CCC(N)=O)NC(=O)[C@H](NC(=O)[C@H]1CCCN1C(=O)[C@@H](CCCNC(=N)N)NC(=O)[C@@H](CO)NC(=O)[C@@H](CCC(N)=O)NC(=O)[C@@H](CC(=O)O)NC(=O)[C@H](N)[C@H](C)O)C(C)C)C(=O)N[C@H](CC(N)=O)C(=O)N[C@H](CC(C)C)C(=O)N[C@@H](C(=O)N[C@@H](C(=O)N1CCC[C@@H]1C(=O)N[C@H](CCCNC(=N)N)C(=O)N[C@H](CCCCN)C(=O)N1CCC[C@@H]1C(=O)N[C@H](CCCNC(=N)N)C(=O)N[C@H](Cc1ccc(O)cc1)C(=O)N[C@@H](C(=O)N[C@H](CC(=O)O)C(=O)N1CCC[C@@H]1C(=O)N1CCC[C@@H]1C(=O)N[C@H](CCCNC(=N)N)C(=O)N[C@H](CCCNC(=N)N)C(=O)N[C@H](CCCNC(=N)N)C(=O)N[C@H](CCC(N)=O)C(=O)N[C@H](CCCNC(=N)N)C(=O)N[C@H](CCCNC(=N)N)C(=O)N[C@H](CCCCN)C(=O)N[C@H](CCCCN)C(=O)N[C@H](CCCNC(=N)N)C(=O)NCC(=O)O)[C@H](C)O)[C@H](C)O)[C@H](C)O) [D-TAT-IB1],IL-1 induced apoptosis after two days,[12]; IL-1 10 ng/ml,decreased IL-1 induced apoptosis to a similar extent as L-TAT-IB peptides
NH2-GRKKRRQRRR-COOH (H-GRKKRRQRRR-OH) [L-TAT],entry into cells,[10],efficiently and rapidly (less than five minutes) entered cells
NH2-PGTGCGDTYRPKRPTTLNLFPQVPRSQDT-COOH (H-PGTGCGDTYRPKRPTTLNLFPQVPRSQDT-OH) [IB1-long],efficiency in binding JNK relative to c-Jun or ATF2,[16],approximately 100 fold
"Fluorescein-labeled BSA: Fluorescein-labeled BSA (1 μM, 12 moles/mole BSA) used as a control [reference compound]",entry into cells,[10],did not enter the cells
"O=C(O)c1cc(/N=N/c2ccc(S(=O)(=O)Nc3ccccn3)cc2)ccc1O [Sulfasalazine, reference compound]",clinical score,[9],reduction in the clinical score
same,gross pathology score of the colon,"[9]; end of study, 10 mg/kg PO daily",effective in reducing the gross pathology completely
NH2-IPSPSVEEPHKHRPTTLRLTTLGAQDS-COOH (H-IPSPSVEEPHKHRPTTLRLTTLGAQDS-OH) [IB2-long],efficiency in binding JNK relative to c-Jun or ATF2,[16],approximately 100 fold
